This is an account of results in US20220241214A1, “NAN[…] W METHIDES AND COMPOSITIONS FOR USE” (priority 2019, published 2022).

The conditions of data set [1]: previous reported; cited from earlier work.
Data set [2] has as its system PDX1 tumors. The data set is described as follows: Patient-derived xenograft (PDX1) model of endometrial cancer, tumor growth. To be noted: PDX1 mice, twice a week for 4 weeks; compared to control PLGA nanoparticles (combination: compared to all other groups). Format: in vivo. As to the method: Patient-derived xenograft (PDX) studies: A PDX model of endometrial cancer (PDX1) has been previously described (Luo et al., 2010). NOD.Cg-Prkdcscid Il2rgtm1Wjl/SzJ (NSG, Jackson Laboratories, Bar Harbor, Me.) immunodeficient female mice at 8 weeks of age were injected with passage 3 of PDX1 tumor tissue (10 mg/100 μl medium) into the right flank subcutaneously. The mice were randomly divided into 4 groups, with 5 mice per drug treated group, and 4 mice comprised the empty nanoparticle control group. Treatment was started on day 15 after engraftment of cells. The dose of pristimerin delivered in nanoparticles was 60 μg for each mouse and was administered by intravenous injection (IV) injection twice a week for a total of 4 weeks. The dose of cisplatin was […] for each mouse and was administered by intraperitoneal (IP) injection twice a week for a total of 4 weeks. After 2 weeks of treatment, tumors were measured weekly using calipers, and volumes were calculated using the formula length×width^2/2.
All animal studies were performed under animal protocols #7051085 approved by the University of Iowa Institutional Animal Care and Use Committee (Iowa City, Iowa). MTDH knockout mice were generated as described previously (Meng et al., 2015). […] After 2 weeks of treatment, tumors were measured weekly using calipers, and volumes were calculated using the formula […].
On the technique in general: A xenograft is tissue or cells of one species grown in another, often human tumour cells in immunodeficient mice.

The test system of data set [3] is MDA-MB-231 cells. The data set is described as follows: Cell viability by WST-1 assay in MDA-MB-231 cells. It counts as cell-based. To be noted: Homo sapiens, pristimerin 72 hours. As to the method:
(§1) Cell viability was determined by WST-1 assay. Cells were seeded into 96-well plates (1×10^4 cells per well) then treated with cisplatin (Fresenius Kabi Oncology Ltd, Haryana, India) or the combination of cisplatin with pristimerin in solution (Cayman Chemical, Ann Arbor, Mich.). Cell viability was evaluated using the cell proliferation reagent WST-1 (Roche, Germany) according to the manufacturer's protocol. The absorbance was measured with a micro-plate reader (BioRad). Data were calculated as percent (%) viability relative to untreated control, which was set at 100%.
(§2) Cell viability was determined by WST-1 assay. Cells were seeded into 96-well plates (1×10^4 cells per well) then treated with cisplatin (Fresenius Kabi Oncology Ltd., Haryana, India) or the combination of cisplatin with pristimerin in solution (Cayman Chemical, Ann Arbor, Mich.). Cell viability was evaluated using the cell proliferation reagent WST-1 (Roche, Germany) according to the manufacturer's protocol. Absorbance was measured with a microplate reader (BioRad). Data were calculated as percent (%) viability relative to untreated control, which was set at 100%.
For orientation: Tetrazolium dyes change colour on reduction, which living cells bring about.

The test system of data set [4] is Hec50 cells. Kind of data set: Cell viability by WST-1 assay in Hec50 cells. It counts as cell-based. As to conditions: pristimerin 72 hours. Here is the method:
as §1, §2

For data set [5], the system named is KLE cells. The data set is described as follows: Cell viability by WST-1 assay in KLE cells. Format: cell-based. To be noted: Homo sapiens, pristimerin 72 hours. Here is the method: as §1, §2
Data set [6] in a line: Solubility and pharmacokinetics (statement). As to conditions: pristimerin in solution.
For data set [7], the target named is P-glycoprotein (P-gp) efflux transporter (Homo sapiens, UniProt P08183). To be noted: not told; cited from earlier work.
Chain of P-glycoprotein (P-gp) efflux transporter (P08183 whole entry): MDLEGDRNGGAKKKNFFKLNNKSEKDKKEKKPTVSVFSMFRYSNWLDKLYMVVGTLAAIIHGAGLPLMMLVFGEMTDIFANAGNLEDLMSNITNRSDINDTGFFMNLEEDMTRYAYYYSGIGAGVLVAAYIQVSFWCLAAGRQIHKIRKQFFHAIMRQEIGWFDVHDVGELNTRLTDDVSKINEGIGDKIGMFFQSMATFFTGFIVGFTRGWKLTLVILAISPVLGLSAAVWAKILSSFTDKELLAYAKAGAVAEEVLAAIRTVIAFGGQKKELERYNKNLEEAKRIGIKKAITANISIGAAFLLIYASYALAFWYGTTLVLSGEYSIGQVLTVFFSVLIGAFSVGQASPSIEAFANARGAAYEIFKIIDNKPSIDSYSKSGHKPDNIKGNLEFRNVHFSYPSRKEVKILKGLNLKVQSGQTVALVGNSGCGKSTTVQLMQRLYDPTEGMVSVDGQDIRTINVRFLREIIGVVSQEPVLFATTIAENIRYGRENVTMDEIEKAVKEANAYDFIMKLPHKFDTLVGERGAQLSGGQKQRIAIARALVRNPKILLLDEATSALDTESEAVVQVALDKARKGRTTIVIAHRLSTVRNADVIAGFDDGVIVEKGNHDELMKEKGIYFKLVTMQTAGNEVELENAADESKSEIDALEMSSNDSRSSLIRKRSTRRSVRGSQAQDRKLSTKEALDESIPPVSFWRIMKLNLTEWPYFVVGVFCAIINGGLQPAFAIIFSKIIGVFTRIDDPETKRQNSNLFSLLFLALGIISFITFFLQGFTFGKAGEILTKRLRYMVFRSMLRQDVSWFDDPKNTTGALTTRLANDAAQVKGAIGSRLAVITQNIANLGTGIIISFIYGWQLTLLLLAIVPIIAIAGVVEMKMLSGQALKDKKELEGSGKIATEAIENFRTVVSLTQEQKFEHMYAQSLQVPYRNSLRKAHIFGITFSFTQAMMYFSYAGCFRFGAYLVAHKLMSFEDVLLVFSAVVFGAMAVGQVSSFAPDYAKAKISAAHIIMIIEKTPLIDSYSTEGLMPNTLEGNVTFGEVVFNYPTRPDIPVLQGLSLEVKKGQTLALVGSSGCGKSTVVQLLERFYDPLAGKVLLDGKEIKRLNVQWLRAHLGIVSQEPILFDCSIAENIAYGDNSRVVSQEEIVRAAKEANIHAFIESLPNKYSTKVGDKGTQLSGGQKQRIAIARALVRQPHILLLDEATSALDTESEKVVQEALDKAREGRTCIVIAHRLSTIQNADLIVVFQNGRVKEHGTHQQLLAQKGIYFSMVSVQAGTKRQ

Like-named read-outs stand apart in the source and are kept apart here.

In the case of `CC1=C(O)C(=O)C=C2C1=CC=C1[C@@]2(C)CC[C@@]2(C)[C@@H]3C[C@](C)(C(=O)O)CC[C@]3(C)CC[C@]12C` [celastrol], the solubility and pharmacokinetics result in data set [1] is “poor”.
Take `N.N.[Cl][Pt][Cl]` [cisplatin]: the tumor growth entry in data set [2] was “significantly inhibited”.
With `COC(=O)[C@]1(C)CC[C@]2(C)CC[C@]3(C)C4=CC=C5C(=CC(=O)C(O)=C5C)[C@]4(C)CC[C@@]3(C)[C@@H]2C1` [pristimerin, Pristimerin], the IC50 in data set [3], in data set [4] and in data set [5] was less than 1000 nM in each case. Further, in data set [6], the solubility and pharmacokinetics entry is on record as “poor”. The “substrate to P-gp” value in data set [7] is on record as “substrate”.

Usually IC50 stands for the midpoint of a concentration-inhibition curve.
